# From PMC7109127 (British Journal of Cancer, 2020)
# Where “and” joins values, the source holds several entries; their conditions need not be identical. Equal values may be shown once. Read-outs that look alike come from different tables or passages of the source.
# Tests used:
# [1] = cited from earlier work; for mean AUC0–24 / median tmax: all solid tumours, 1 mg
# [2] = tested on: metastatic renal cell carcinoma; conditions: TIVO-1; cited from earlier work
# advanced HCC = experiment: phase 1b/2 study, antineoplastic efficacy (RECIST 1.1, PFS, OS); type: in vivo, patients
# Description: This was a phase 1b/2, open-label, single-arm multicentre clinical trial. Subjects were accrued at Roswell Park Comprehensive Cancer Centre (RPCI) and Case Comprehensive Cancer Centre. The respective institutional review board (IRB) approved the protocol at each site. The study was conducted according to the principles of the Declaration of Helsinki, the International Conference on Harmonisation and the Guidelines for Good Clinical Practice. All patients provided written informed consent. The trial was registered with ClinicalTrials.gov (NCT01835223).
# Secondary objectives included determination of safety and the PK/PD of tivozanib in patients with advanced HCC. The primary endpoint was PFS at 24 weeks. PFS and not ORR were selected because at the time of study inception PFS or time to progression were acceptable primary efficacy endpoints in early phase HCC studies in view of very low ORR with anti-VEGFR agents. Patients who remained alive and without evidence of disease progression per RECIST 1.1 for at least 24 weeks after enrolment were considered as PFS responders. Secondary endpoints were AEs by CTCAE v4.0, steady state PK, ORR, OS, change in HBV or HCV viral load, serum α-fetoprotein (AFP), and changes in soluble VEGFR-2 (sVEGFR-2).
# Using the 3+3 design, the MTD was the DL with probability of DLT 33% or higher. With three dose levels, between 6 and 18 patients were required to complete the phase 1b portion. In terms of antineoplastic efficacy, the true progression rate of less than p0 = 0.50 was considered unacceptable and evidence of such will deem the treatment not worthy of further study. The null and alternative hypotheses tested were H0: p = p0 vs. H1: p > p0. With this two-stage design, a potential total of 37 patients was required to achieve 80% power to detect a difference of at least 20% with a type I error of 5%. Using a two-stage design, a total of 19 patients were planned to be enrolled initially, including the phase 1b patients treated at the MTD/RP2D. If nine or fewer PFS responses were observed, the therapy would be deemed ineffective and the study would end. Otherwise, an additional 18 patients would be enrolled. If 23 or fewer PFS responses are observed in the total efficacy population, therapy would be deemed ineffective; otherwise, it will be concluded that the therapy is promising. The differences on outcomes between study groups were compared by non-parametric Kruskal–Wallis test and Fisher’s/χ^2 test. OS and PFS were estimated by the Kaplan–Meier method and compared by log-rank test. All tests were two sided and performed at a nominal significance level of 0.05. SAS version 9.4 (SAS Institute, Cary, NC) is used for statistical analyses.
# [3] = healthy volunteers; cited from earlier work
# [4] = RP2D 1 mg, efficacy population N = 19
compound,measurement,setting,value
COc1cc2nccc(Oc3ccc(NC(=O)Nc4cc(C)on4)c(Cl)c3)c2cc1OC [tivozanib],mean AUC0–24,[1]; multiple doses,856 ng·h/mL
same,median tmax,[1]; multiple doses,4.01 h
same,mean AUC0–24,[1]; single dose,131.2 ng·h/mL
same,median tmax,[1]; single dose,6.01 h
same,half-life,[1],88.8 to 113 h
same,overall response rate (ORR),[2],33.1%
same,progression-free survival (PFS),[2],11.9 months
same,24-week PFS probability,"advanced HCC; Kaplan–Meier, N = 19",58%
same,1-year OS rate,advanced HCC; N = 19,40%
same,2-year OS rate,advanced HCC; N = 19,30%
same,overall disease control rate,"advanced HCC; RECIST 1.1, N = 19",63%
same,PFS responders at 24 weeks (6-month PFS),"advanced HCC; RP2D 1 mg, N = 19",47.3%
same,"overall response rate (PR, RECIST 1.1)","advanced HCC; RP2D 1 mg, N = 19",21%
same,median OS,advanced HCC; [4],9 months and 9.0 months
same,median PFS,advanced HCC; [4],24 weeks
same,difference in total drug exposure with food consumption,[3],did not show a difference
